Key:
Assay type in all cases: binding
CC mismatched DNA [1] = test: Emission enhancement of complexes upon titration with CC mismatched DNA; conditions: complex 5 μM, DNA 10 μM; for ratio of emission enhancement by CC mismatched DNA to that by matched DNA (ΔIcc/ΔImat): aqueous buffer pH 7.5; for increase in emission intensity in the presence of CC mismatched DNA: aqueous buffer 50 mM NaCl, 2 mM Tris, pH 7.5
Experimental: (§1) FIGS. 1A and 1B are graphs showing the emission spectra of complex 5 (5 μM) in an aqueous buffer solution (50 mM NaCl, 2 mM Tris, pH 7.5) after binding to different concentrations of CC mismatched DNA (left) and well-matched DNA (right).
(§2) FIG. 4 is a graph showing the emission enhancement of different complexes (5 μM) towards CC mismatched DNA and matched DNA (10 μM). FIG. 5 is a graph showing the difference in emission enhancement between CC mismatched DNA and matched DNA by different complexes.

matched DNA [2] = test: Emission enhancement of complexes upon titration with well-matched DNA; conditions: complex 5 μM, DNA 10 μM; aqueous buffer 50 mM NaCl, 2 mM Tris, pH 7.5
Experimental: as §1, §2
Upon addition of CC mismatch DNA, a growth of the emission band was observed, and a 27-fold increase in emission intensity was found when the concentration of CC mismatched DNA was twice as much as that of the concentration of complex 5 (FIGS. 1A and 1B). It is noteworthy that the emission enhancement of complex 5 towards CC mismatched DNA was around 7-fold more than that toward matched DNA (FIG. 2).

CC mismatched DNA [3] = test: Isothermal titration calorimetry with CC mismatched DNA; conditions: 0.1 mM complex titrated by 0.75 mM DNA; 50 mM NaCl, 2 mM Tris, pH 7.5
Source text: ITC measures the heat absorbed or generated during a bi-molecular binding event. During ITC experiment of titrating known concentration of titrant (DNA molecules) to known quantity of titrate (Pt(II) complexes), Pt(II) complexes would bind onto the DNA molecules, generating incremental heat changes (in the unit of microcalories (μcal)). Through accurate measurement of the heat changes in each step of the titration and fitting the data by using a non-liner least square method, the best-fitted graph would yield the binding constant (K) of the bi-molecular interaction.
To determine the binding constant of Pt(II) complexes with CC mismatched DNA, 0.1 mM of Pt(II) complex in an aqueous buffer solution (50 mM NaCl, 2 mM Tris, pH 7.5) was titrated by 0.75 mM of DNA. Heat released from each step of titration had been recorded.

matched DNA [4] = test: Isothermal titration calorimetry with matched DNA; conditions: 0.1 mM complex titrated by 0.75 mM DNA; 50 mM NaCl, 2 mM Tris, pH 7.5

Compound: OCCN1C=CN(Cc2ccccc2)[CH]1[Pt]12[c]3ccccc3-c3cccc([n+]31)-c1cccc[n+]12 (centres unmarked) [Complex 9]
- ratio of emission enhancement by CC mismatched DNA to that by matched DNA (ΔIcc/ΔImat) (CC mismatched DNA [1]): smaller ratios of emission enhancement by CC mismatched DNA to the enhancement by matched DNA than complex 5
- increase in emission intensity in the presence of matched DNA (matched DNA [2]): strong emission enhancement

Compound: C1=CN(CN2C=CN(Cc3ccccc3)[CH]2[Pt]23[c]4ccccc4-c4cccc([n+]42)-c2cccc[n+]23)[CH]([Pt]23[c]4ccccc4-c4cccc([n+]42)-c2cccc[n+]23)N1Cc1ccccc1 (centres unmarked) [Complex 21]
- ratio of emission enhancement by CC mismatched DNA to that by matched DNA (ΔIcc/ΔImat) (CC mismatched DNA [1]): largest ΔIcc/ΔImat value

Compound: CN1C=CN(C)[CH]1[Pt]12[c]3ccccc3-c3cccc([n+]31)-c1cccc[n+]12 (centres unmarked) [Complex 1]
- difference in heat change between titration with CC mismatched DNA and matched DNA (ITC) (CC mismatched DNA [3]): no distinguishable difference in heat change

Compound: CCCCN1C=CN(Cc2ccccc2)[CH]1[Pt]12[c]3ccccc3-c3cc(-c4ccccc4)cc([n+]31)-c1cccc[n+]12 (centres unmarked) [Complex 16]
- increase in emission intensity in the presence of CC mismatched DNA (CC mismatched DNA [1]): no emission enhancement
- increase in emission intensity in the presence of matched DNA (matched DNA [2]): no emission enhancement

Compound: CCCCN1C=CN(Cc2ccccc2)[CH]1[Pt]12[c]3ccccc3-c3cccc([n+]31)-c1cccc[n+]12 (centres unmarked) [Complex 5]
- increase in emission intensity in the presence of CC mismatched DNA (CC mismatched DNA [1]): 27 fold
- heat change in the binding of matched DNA (ITC) (matched DNA [4]): no significant heat change
- binding constant (K) with CC mismatched DNA by ITC (CC mismatched DNA [3]): 1.18×10^4

Compound: CCCCN1C=CN(Cc2ccc3ccccc3c2)[CH]1[Pt]12[c]3ccccc3-c3cccc([n+]31)-c1cccc[n+]12 (centres unmarked) [Complex 11]
- increase in emission intensity in the presence of CC mismatched DNA (CC mismatched DNA [1]): no emission enhancement
- increase in emission intensity in the presence of matched DNA (matched DNA [2]): no emission enhancement

Compound: C1=CN(Cc2ccccc2)[CH]([Pt]23[c]4ccccc4-c4cccc([n+]42)-c2cccc[n+]23)N1Cc1ccccc1 (centres unmarked) [Complex 8]
- increase in emission intensity in the presence of CC mismatched DNA (CC mismatched DNA [1]): small emission enhancements
- ratio of emission enhancement by CC mismatched DNA to that by matched DNA (ΔIcc/ΔImat) (CC mismatched DNA [1]): smaller ratios of emission enhancement by CC mismatched DNA to the enhancement by matched DNA than complex 5
- increase in emission intensity in the presence of matched DNA (matched DNA [2]): small emission enhancements

Reference: patent US10378046B2, “Method of targeting mismatched DNA using d8 square planar metal complexes” (The University of Hong Kong, priority 2015, dated 2019)
